# From patent US8486933B2, “Pyrimidine inhibitors of kinase activity” (AbbVie Inc., priority 2009, dated 2013)
# Biological target: T1, human IGF-1R (Homo sapiens, UniProt P08069)
# T1 construct: human IGF-1R, amino acids 954-1367 expressed by baculovirus in Sf21 cells; GST (C); purchased Cell Signaling Technology; host or cells: baculovirus in Sf21 cells
# Assay: IGF-1R homogenous time-resolved fluorescence (HTRF) in vitro kinase assay
# Type: biochemical
# Details: recombinant GST-tagged human IGF-1R aa 954-1367; ATP 50 μM; 60 minutes at room temperature
# Procedure: IGF-1R kinase activity was assayed by a homogenous time-resolved fluorescence (HTRF) in vitro kinase assay (Mathis, G., HTRF(R) Technology. J Biomol Screen, 1999. 4(6): p. 309-314). Specifically, 10 μL C-terminal GST-tagged, recombinant, human IGF-1R, amino acids 954-1367 expressed by baculovirus in Sf21 cells (Cell Singaling Technology) was mixed with 10 μL inhibitor (various concentrations, 2% final DMSO) and 10 μL of ATP (50 μM final concentration) in reaction buffer (50 mM HEPES, pH 7.5, 10 mM MgCl2, 2 mM MnCl2, 0.1% BSA and 1 mM DTT, 40 μL final volume). The reaction was initiated by addition of 10 μL of biotinylated peptide substrate (Biotin-Ahx-[…], 0.5 μM final concentration) in a black 384-well plate (Packard). […] The quenched reaction was allowed to stand at room temperature for 1 hour and then read in a time-resolved fluorescence detector (Envision, Perkin Elmer) at 615 nm and 665 nm simultaneously. The ratio between the signal of 615 nm and 665 nm was used in the calculation of the IC50.
# T1 sequence (P08069 954-1367): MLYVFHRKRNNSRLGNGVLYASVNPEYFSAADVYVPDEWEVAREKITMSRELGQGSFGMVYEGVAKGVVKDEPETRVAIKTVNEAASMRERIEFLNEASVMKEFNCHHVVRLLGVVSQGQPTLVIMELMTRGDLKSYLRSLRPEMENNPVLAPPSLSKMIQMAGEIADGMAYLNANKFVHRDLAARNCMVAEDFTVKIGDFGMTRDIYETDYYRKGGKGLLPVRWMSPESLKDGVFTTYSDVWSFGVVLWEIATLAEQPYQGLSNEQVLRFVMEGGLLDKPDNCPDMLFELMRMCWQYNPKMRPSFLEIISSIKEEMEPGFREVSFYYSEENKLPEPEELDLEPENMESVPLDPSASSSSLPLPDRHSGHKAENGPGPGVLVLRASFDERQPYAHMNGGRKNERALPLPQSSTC
row,SMILES,IC50
1,"CCS(=O)(=O)c1cc2[nH]ncc2cc1Nc1nc(Nc2ccc(N3CCOCC3)cc2OC)ncc1Br [Example 32, 5-bromo-N^4-[6-(ethylsulfonyl)-1H-indazol-5-yl]-N^2-(2-methoxy-4-morpholin-4-ylphenyl)pyrimidine-2,4-diamine]",10 to 50 nM
2,"CCS(=O)(=O)c1cc2c(cnn2C)cc1Nc1nc(Nc2ccc(N3CCC(N(C)C)CC3)cc2OC)ncc1Br [Example 33, 5-bromo-N^2-{4-[4-(dimethylamino)piperidin-1-yl]-2-methoxyphenyl}-N^4-[6-(ethylsulfonyl)-1-methyl-1H-indazol-5-yl]pyrimidine-2,4-diamine]",< 10 nM
3,"COc1cc(N2CCC(N(C)C)CC2)ccc1Nc1ncc(Br)c(Nc2cc3cnn(C)c3cc2S(C)(=O)=O)n1 [Example 34, 5-bromo-N^2-{4-[4-(dimethylamino)piperidin-1-yl]-2-methoxyphenyl}-N^4-[1-methyl-6-(methylsulfonyl)-1H-indazol-5-yl]pyrimidine-2,4-diamine]",10 to 50 nM
4,"CNC(=O)c1cc2c(cnn2C)cc1Nc1nc(Nc2ccc(N3CCC(N(C)C)CC3)cc2)ncc1Br [Example 38, 5-{[5-bromo-2-({4-[4-(dimethylamino)piperidin-1-yl]phenyl}amino)pyrimidin-4-yl]amino}-N,1-dimethyl-1H-indazole-6-carboxamide]",10 to 50 nM
5,"COc1cc(N2CCOCC2)ccc1Nc1ncc(Br)c(Nc2cc3cnn(C)c3cc2S(C)(=O)=O)n1 [Example 40, 5-bromo-N^2-(2-methoxy-4-morpholin-4-ylphenyl)-N^4-[1-methyl-6-(methylsulfonyl)-1H-indazol-5-yl]pyrimidine-2,4-diamine]",10 to 50 nM
6,"CNC(=O)c1cc2c(cnn2C)cc1Nc1nc(Nc2ccc(N3CCOCC3)cc2OC)ncc1Br [Example 41, 5-({5-bromo-2-[(2-methoxy-4-morpholin-4-ylphenyl)amino]pyrimidin-4-yl}amino)-N,1-dimethyl-1H-indazole-6-carboxamide]",10 to 50 nM
7,"CCS(=O)(=O)c1cc2c(cnn2C)cc1Nc1nc(Nc2ccc(N3CCN(C(C)C)CC3)cc2OC)ncc1Br [Example 42, 5-bromo-N^4-[6-(ethylsulfonyl)-1-methyl-1H-indazol-5-yl]-N^2-[4-(4-isopropylpiperazin-1-yl)-2-methoxyphenyl]pyrimidine-2,4-diamine]",< 10 nM
8,"CNC(=O)c1cc2c(cnn2C)cc1Nc1nc(Nc2ccc(N3CCN(C(C)C)CC3)cc2OC)ncc1Br [Example 44, 5-[(5-bromo-2-{[4-(4-isopropylpiperazin-1-yl)-2-methoxyphenyl]amino}pyrimidin-4-yl)amino]-N,1-dimethyl-1H-indazole-6-carboxamide]",10 to 50 nM
9,"COc1cc(N2CCC(N3CCN(C)CC3)CC2)ccc1Nc1ncc(Br)c(Nc2ccc3nc(-c4ccccc4)ccc3c2)n1 [Example 47, 5-bromo-N^2-{2-methoxy-4-[4-(4-methylpiperazin-1-yl)piperidin-1-yl]phenyl}-N^4-(2-phenylquinolin-6-yl)pyrimidine-2,4-diamine]",> 500 nM
10,"COc1cc(N2CCC(N3CCN(C)CC3)CC2)ccc1Nc1ncc(Br)c(Nc2ccc3ncccc3c2)n1 [Example 49, 5-bromo-N^2-{2-methoxy-4-[4-(4-methylpiperazin-1-yl)piperidin-1-yl]phenyl}-N^4-quinolin-6-ylpyrimidine-2,4-diamine]",10 to 50 nM
11,"COc1cc(N2CCC(N3CCN(C)CC3)CC2)ccc1Nc1ncc(Br)c(Nc2ccc3cccnc3c2)n1 [Example 50, 5-bromo-N^2-{2-methoxy-4-[4-(4-methylpiperazin-1-yl)piperidin-1-yl]phenyl}-N^4-quinolin-7-ylpyrimidine-2,4-diamine]",10 to 50 nM
12,"COc1cc(N2CCC(N3CCN(C)CC3)CC2)ccc1Nc1ncc(Br)c(Oc2ccc3cccnc3c2)n1 [Example 51, 5-bromo-N-{2-methoxy-4-[4-(4-methylpiperazin-1-yl)piperidin-1-yl]phenyl}-4-(quinolin-7-yloxy)pyrimidin-2-amine]",10 to 50 nM

# Now from value to compound:
row,IC50,SMILES
1,10 to 50 nM,"CNC(=O)c1cc2c(cnn2C)cc1Nc1nc(Nc2ccc(N3CCC(N(C)C)CC3)cc2OC)ncc1Br [Example 35, 5-{[5-bromo-2-({4-[4-(dimethylamino)piperidin-1-yl]-2-methoxyphenyl}amino)pyrimidin-4-yl]amino}-N,1-dimethyl-1H-indazole-6-carboxamide]"
2,10 to 50 nM,"CCS(=O)(=O)c1cc2c(cnn2C)cc1Nc1nc(Nc2ccc(N3CCC(N(C)C)CC3)cc2)ncc1Br [Example 36, 5-bromo-N^2-{4-[4-(dimethylamino)piperidin-1-yl]phenyl}-N^4-[6-(ethylsulfonyl)-1-methyl-1H-indazol-5-yl]pyrimidine-2,4-diamine]"
3,10 to 50 nM,"CN(C)C1CCN(c2ccc(Nc3ncc(Br)c(Nc4cc5cnn(C)c5cc4S(C)(=O)=O)n3)cc2)CC1 [Example 37, 5-bromo-N^2-{4-[4-(dimethylamino)piperidin-1-yl]phenyl}-N^4-[1-methyl-6-(methylsulfonyl)-1H-indazol-5-yl]pyrimidine-2,4-diamine]"
4,10 to 50 nM,"CCS(=O)(=O)c1cc2c(cnn2C)cc1Nc1nc(Nc2ccc(N3CCOCC3)cc2OC)ncc1Br [Example 39, 5-bromo-N^4-[6-(ethylsulfonyl)-1-methyl-1H-indazol-5-yl]-N^2-(2-methoxy-4-morpholin-4-ylphenyl)pyrimidine-2,4-diamine]"
5,10 to 50 nM,"COc1cc(N2CCN(C(C)C)CC2)ccc1Nc1ncc(Br)c(Nc2cc3cnn(C)c3cc2S(C)(=O)=O)n1 [Example 43, 5-bromo-N^2-[4-(4-isopropylpiperazin-1-yl)-2-methoxyphenyl]-N^4-[1-methyl-6-(methylsulfonyl)-1H-indazol-5-yl]pyrimidine-2,4-diamine]"
6,51 to 100 nM,"CCS(=O)(=O)c1cc2c(cnn2C)cc1Nc1nc(Nc2ccc(N3CCS(=O)(=O)CC3)cc2)ncc1Br [Example 45, 5-bromo-N^2-[4-(1,1-dioxidothiomorpholin-4-yl)phenyl]-N^4-[6-(ethylsulfonyl)-1-methyl-1H-indazol-5-yl]pyrimidine-2,4-diamine]"
7,< 10 nM,"CCS(=O)(=O)c1cc2c(cnn2C)cc1Nc1nc(Nc2ccc(N3CCC(N4CCN(C)CC4)CC3)cc2OC)ncc1Br [Example 46, 5-bromo-N^4-[6-(ethylsulfonyl)-1-methyl-1H-indazol-5-yl]-N^2-{2-methoxy-4-[4-(4-methylpiperazin-1-yl)piperidin-1-yl]phenyl}pyrimidine-2,4-diamine]"
8,> 500 nM,"COc1cc(N2CCC(N3CCN(C)CC3)CC2)ccc1Nc1ncc(Br)c(Nc2ccc3ccc(-c4ccccc4)nc3c2)n1 [Example 48, 5-bromo-N^2-{2-methoxy-4-[4-(4-methylpiperazin-1-yl)piperidin-1-yl]phenyl}-N^4-(2-phenylquinolin-7-yl)pyrimidine-2,4-diamine]"
